Laboratory results as given in US10947271B2, “Antibacterial agents” (THE UNIVERSITY OF QUEENSLAND, priority 2014, dated 2021).

Legend:
MRSA (Strain ATCC 43300) = assay: Murine thigh infection model (MRSA); type: in vivo, Staphylococcus aureus; settings: neutropenic CD1 mice
Experimental: Summary: Adult (8 week old) female CD1 mice were made neutropenic by two injections of cyclophosphamide 4 days and 1 day prior to infection. An inoculum of 10^5 cfu MRSA (Strain ATCC 43300) was injected intramuscularly into both left and right thighs of all mice. […] After an additional two hours, a 50 μL sample of blood was obtained from the tail bleed to analyse for presence of antibiotic compound. […] Thighs were then removed, weighed and homogenised in a fixed volume of saline. The homogenate solution was filtered, diluted and seeded onto agar plates, which were incubated overnight at 37° C. Colony counts were used to establish the cfu in the thigh homogenates, the cfu/thigh, and the cfu/g of thigh.
Compound preparation: Cyclophosphamide monohydrate (Sigma) was dissolved in sterile saline to a concentration of 30 mg/mL. Likewise, vancomycin (Sigma) and MCC compounds were also dissolved in sterile saline to a final concentration of 60 mg/mL and 18.5 mg/mL respectively. All compounds were prepared in low binding Eppendorf tubes and kept at −20° C. until used.
In vivo experimental assay: Eight week old female outbred CD1 mice (UQBR-AIBN) were rendered neutropenic by injecting two doses of cyclophosphamide intraperitoneally 4 days (150 mg/kg) and 1 day (100 mg/kg) prior to experimental infection. The infection model using MRSA was established by intramuscular injection of 50 μL of early-log-phase bacterial MRSA suspension (around 2×10^6 cfu/mL) in saline into both thigh muscles. […] Untreated animals received equivalent volume of saline (Baxter). The mice were monitored for signs of normal behaviour (i.e. grooming, eating, drinking, sleeping, and alertness) during and following dosing. Two hours after saline/antibiotic treatment, 0.05 mL of blood was collected by tail incision. 24 hours after MRSA infection, mice were euthanized and blood collected from the heart by cardiac puncture (saline group) or by tail incision (Vancomycin and MCC compound treated groups) as outlined in FIG. 1. For each mouse, both thighs were collected aseptically by cutting the leg at the hip and knee, placed in 10 mL of cold sterile saline and the individual weight of each thigh recorded.
Preparation of injectable MRSA solution: An MRSA subculture bacterial isolate (ATCC43300) was taken from the storage at −80° C. and freshly seeded on agar plates for overnight (O/N) growth. From the O/N culture preparation, a single colony was diluted into 10-12 mL of Mueller Hinton broth (MHB) and incubated O/N at 37° C. A log-phase subculture was obtained by adding 100 μL of O/N subculture in 10 mL MHB and incubated for a further 2-3 hours. Finally, the OD600 value of the bacterial suspension was determined and the colony forming units per millilitre (cfu/mL) extrapolated. A full dilution of the bacterial cell suspension in saline was achieved by washing (3220×g for 10 min) and the OD600 in saline determined. The suspension was then diluted out accordingly in order to achieve a 2×10^6 cfu/mL solution (10^5 cfu in 50 μL/thigh).
Thus, 10 μL of the injectable MRSA suspension was diluted down to 10-1000 fold, each dilution plated out onto agar plates and incubated at 37° C. for 24 hours.
Thigh homogenates and CFU determination: Thighs were homogenized at 20,000 rpm for 15 seconds using a Polytron MR2500E using a […] probe (all Kinematica).

[1] = test system: Streptococcus pneumoniae MDR ATCC 700677; assay: MIC assay, S. pneumoniae MDR ATCC 700677; type: cell-based; settings: 24 h incubation, visual reading
Summary of the method: (§1)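 MHB broth microdilution, twofold series, compounds 8–0.003 μg/ml; mid-log inoculum 5×10e5 CFU/mL; 37° C, 24 h; MIC read visually as lowest concentration without growth.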

[2] = test system: Staphylococcus aureus MRSA ATCC 43300; assay: MIC assay, S. aureus MRSA ATCC 43300; type: cell-based; settings: 24 h incubation, visual reading
Summary of the method: as §1

[3] = test system: Enterococcus faecium MDR Van A ATCC 51559; assay: MIC assay, E. faecium MDR Van A ATCC 51559; type: cell-based; settings: 24 h incubation, visual reading
Summary of the method: as §1

[4] = single subcutaneous dose 50 mg/kg
[5] = single subcutaneous dose 10 mg/kg

Row | Compound | Average Reduction log Δcfu MRSA/thigh after 26 h (MRSA (Strain ATCC 43300); [4]) | Minimum Inhibitory Concentration (MIC) S. pneumoniae ATCC 700677 [1] | Minimum Inhibitory Concentration (MIC) Staph. aureus ATCC43300 [2] | Minimum Inhibitory Concentration (MIC) E. faecium ATCC51559 [3] | Average Reduction log Δcfu MRSA/thigh after 26 h (MRSA (Strain ATCC 43300); [5])
1 | CNC(CC(C)C)C(=O)NC1C(=O)NC(CC(N)=O)C(=O)NC2C(=O)NC3C(=O)NC(C(=O)NC(C(=O)NCCCNC(=O)C(CCCCN)NC(=O)C(CCCCN)NC(=O)CCCOc4ccccc4)c4cc(O)cc(O)c4-c4cc3ccc4O)C(O)c3ccc(c(Cl)c3)Oc3cc2cc(c3OC2OC(CO)C(O)C(O)C2OC2CC(C)(N)C(O)C(C)O2)Oc2ccc(cc2Cl)C1O (stereo not shown) [MCC_005365] | xx (xx = 2-4) | xxx (xxx = 0.1-<1) | xxx (xxx = 0.1-<1) | x (x = >4) | 
2 | CCCCCCCC(O)CC(=O)N[C@@H](CCCCN)C(=O)N[C@@H](CCCCN)C(=O)NCCCNC(=O)[C@H]1NC(=O)[C@H]2NC(=O)[C@H](NC(=O)[C@@H]3NC(=O)[C@H](CC(N)=O)NC(=O)[C@H](NC(=O)[C@@H](CC(C)C)NC)[C@H](O)c4ccc(c(Cl)c4)Oc4cc3cc(c4O[C@@H]3O[C@H](CO)[C@@H](O)[C@H](O)[C@H]3O[C@H]3C[C@](C)(N)[C@H](O)[C@H](C)O3)Oc3ccc(cc3Cl)[C@H]2O)c2ccc(O)c(c2)-c2c(O)cc(O)cc21 (stereo partly shown) [MCC_005483] |  | xxxx (xxxx = 0.01-<0.1) | xxxx (xxxx = 0.01-<0.1) | x (x = >4) | xxx (xxx = 4-6)
3 | CCCCCCCCCC(=O)N[C@@H](CCCNC(=N)N)C(=O)NCCCNC(=O)[C@H]1NC(=O)[C@H]2NC(=O)[C@H](NC(=O)[C@@H]3NC(=O)[C@H](CC(N)=O)NC(=O)[C@H](NC(=O)[C@@H](CC(C)C)NC)[C@H](O)c4ccc(c(Cl)c4)Oc4cc3cc(c4O[C@@H]3O[C@H](CO)[C@@H](O)[C@H](O)[C@H]3O[C@H]3C[C@](C)(N)[C@H](O)[C@H](C)O3)Oc3ccc(cc3Cl)[C@H]2O)c2ccc(O)c(c2)-c2c(O)cc(O)cc21 [MCC_005481] |  | xxxx (xxxx = 0.01-<0.1) | xxxxx (xxxxx = <0.01) | x (x = >4) | xxx (xxx = 4-6)
4 | CCCCCCCCCC(=O)N[C@@H](CCCNC(=N)N)C(=O)N[C@@H](CCCCNC(=O)[C@H]1NC(=O)[C@H]2NC(=O)[C@H](NC(=O)[C@@H]3NC(=O)[C@H](CC(N)=O)NC(=O)[C@H](NC(=O)[C@@H](CC(C)C)NC)[C@H](O)c4ccc(c(Cl)c4)Oc4cc3cc(c4O[C@@H]3O[C@H](CO)[C@@H](O)[C@H](O)[C@H]3O[C@H]3C[C@](C)(N)[C@H](O)[C@H](C)O3)Oc3ccc(cc3Cl)[C@H]2O)c2ccc(O)c(c2)-c2c(O)cc(O)cc21)C(=O)O [MCC_005530] |  |  |  |  | xxx (xxx = 4-6)
5 | CCCCCCCCC(=O)NC(CCCNC(=N)N)C(=O)NCCCNC(=O)C1NC(=O)C2NC(=O)C(NC(=O)C3NC(=O)C(CC(N)=O)NC(=O)C(NC(=O)C(CC(C)C)NC)C(O)c4ccc(c(Cl)c4)Oc4cc3cc(c4OC3OC(CO)C(O)C(O)C3OC3CC(C)(N)C(O)C(C)O3)Oc3ccc(cc3Cl)C2O)c2ccc(O)c(c2)-c2c(O)cc(O)cc21 (stereo not shown) [MCC_007336] |  |  |  |  | xxxx (xxxx = >6)
6 | CCCCCCCCC(=O)N[C@@H](CCCCN)C(=O)NCCCNC(=O)[C@H]1NC(=O)[C@H]2NC(=O)[C@H](NC(=O)[C@@H]3NC(=O)[C@H](CC(N)=O)NC(=O)[C@H](NC(=O)[C@@H](CC(C)C)NC)[C@H](O)c4ccc(c(Cl)c4)Oc4cc3cc(c4O[C@@H]3O[C@H](CO)[C@@H](O)[C@H](O)[C@H]3O[C@H]3C[C@](C)(N)[C@H](O)[C@H](C)O3)Oc3ccc(cc3Cl)[C@H]2O)c2ccc(O)c(c2)-c2c(O)cc(O)cc21 [MCC_005203] |  |  |  |  | xxx (xxx = 4-6)
7 | CCCCCCCCCC(=O)N[C@@H](Cc1c[nH]c2ccccc12)C(=O)N[C@H](CC(N)=O)C(=O)N[C@@H](CC(=O)O)C(=O)N[C@@H]1C(=O)NCC(=O)N[C@@H](CCCN)C(=O)N[C@@H](CC(=O)O)C(=O)N[C@H](C)C(=O)N[C@@H](CC(=O)O)C(=O)NCC(=O)N[C@H](CO)C(=O)N[C@@H]([C@H](C)CC(=O)O)C(=O)N[C@@H](CC(=O)c2ccccc2N)C(=O)O[C@@H]1C [Daptomycin, reference compound] | xxx (xxx = 4-6) |  |  |  | 
